Earlier results, collected in US20210137903A1, “ANTI-ANDROGENS FOR THE TREATMENT OF PROSTRATE CANCER” (priority 2019, published 2021).

Experiments:
AR = AR (Homo sapiens, UniProt P10275); conditions: cited from earlier work
T877A AR mutant = target: T1, T877A AR mutant (Homo sapiens, UniProt P10275, T878A); conditions: cited from earlier work
T1 sequence (P10275 1-920 T878A): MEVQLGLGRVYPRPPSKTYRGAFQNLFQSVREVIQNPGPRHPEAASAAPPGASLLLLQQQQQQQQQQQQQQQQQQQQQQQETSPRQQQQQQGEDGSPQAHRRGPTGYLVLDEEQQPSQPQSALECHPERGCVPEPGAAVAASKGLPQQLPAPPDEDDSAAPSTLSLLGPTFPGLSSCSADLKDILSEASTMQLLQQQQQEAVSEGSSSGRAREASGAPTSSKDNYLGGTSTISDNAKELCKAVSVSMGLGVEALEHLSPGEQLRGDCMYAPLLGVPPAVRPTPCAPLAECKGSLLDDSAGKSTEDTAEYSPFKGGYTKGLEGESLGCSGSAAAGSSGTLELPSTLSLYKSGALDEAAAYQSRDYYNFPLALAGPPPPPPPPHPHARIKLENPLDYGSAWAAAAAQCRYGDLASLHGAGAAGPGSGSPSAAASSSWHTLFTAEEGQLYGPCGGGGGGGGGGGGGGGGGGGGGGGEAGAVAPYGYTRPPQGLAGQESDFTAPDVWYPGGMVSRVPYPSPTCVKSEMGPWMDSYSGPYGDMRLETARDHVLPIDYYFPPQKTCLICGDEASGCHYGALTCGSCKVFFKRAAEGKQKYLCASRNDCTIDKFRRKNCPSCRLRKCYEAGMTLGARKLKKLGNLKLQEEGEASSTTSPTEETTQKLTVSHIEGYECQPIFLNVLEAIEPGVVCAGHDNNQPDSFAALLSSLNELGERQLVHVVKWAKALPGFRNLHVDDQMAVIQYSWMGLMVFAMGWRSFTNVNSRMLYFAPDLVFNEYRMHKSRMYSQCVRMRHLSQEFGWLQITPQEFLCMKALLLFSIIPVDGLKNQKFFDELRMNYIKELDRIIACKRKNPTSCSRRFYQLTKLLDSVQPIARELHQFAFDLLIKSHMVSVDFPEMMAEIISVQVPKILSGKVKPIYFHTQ

Sequence of AR (P10275 whole entry): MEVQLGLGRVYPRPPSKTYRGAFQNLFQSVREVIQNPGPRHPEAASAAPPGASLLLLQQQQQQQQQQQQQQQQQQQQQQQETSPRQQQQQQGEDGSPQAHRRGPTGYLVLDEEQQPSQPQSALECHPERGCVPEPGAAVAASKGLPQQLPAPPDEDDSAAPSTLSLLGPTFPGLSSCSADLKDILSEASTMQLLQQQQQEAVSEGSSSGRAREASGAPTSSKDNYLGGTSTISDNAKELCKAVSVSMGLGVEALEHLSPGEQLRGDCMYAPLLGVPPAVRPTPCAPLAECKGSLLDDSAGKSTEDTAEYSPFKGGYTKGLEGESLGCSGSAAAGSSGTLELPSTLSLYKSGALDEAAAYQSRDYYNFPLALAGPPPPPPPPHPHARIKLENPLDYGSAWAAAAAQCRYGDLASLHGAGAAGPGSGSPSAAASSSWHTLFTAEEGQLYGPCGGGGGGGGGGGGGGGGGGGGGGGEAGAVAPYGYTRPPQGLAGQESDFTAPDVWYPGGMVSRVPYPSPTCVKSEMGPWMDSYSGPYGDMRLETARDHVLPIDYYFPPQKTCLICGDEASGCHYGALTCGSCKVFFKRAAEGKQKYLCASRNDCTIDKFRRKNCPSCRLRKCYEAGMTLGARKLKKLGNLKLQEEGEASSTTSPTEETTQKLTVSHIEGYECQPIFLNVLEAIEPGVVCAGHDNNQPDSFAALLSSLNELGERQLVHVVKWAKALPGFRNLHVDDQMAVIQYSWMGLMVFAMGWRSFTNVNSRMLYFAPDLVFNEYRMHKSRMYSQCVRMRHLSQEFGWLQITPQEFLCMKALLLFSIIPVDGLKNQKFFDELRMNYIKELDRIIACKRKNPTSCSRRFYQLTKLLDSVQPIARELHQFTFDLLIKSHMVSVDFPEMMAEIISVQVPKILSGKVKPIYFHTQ

SMILES	affinity of binding to AR (AR)	AR agonist activity (T877A AR mutant)
CC(O)c1cc(C(=O)N[C@@H](C)Cn2ccc(-c3ccc(C#N)c(Cl)c3)n2)[nH]n1 (some centres unmarked) [Darolutamide]	high affinity	
CC(C)(O)C(=O)Nc1ccc([N+](=O)[O-])c(C(F)(F)F)c1 [hydroxyflutamide]		act as AR agonists
